Test results published in a melting point compilation (Tetko et al.).

Conditions: a range is the spread between reports
`CC(C)c1ncc([N+](=O)[O-])n1C` gave a melting point of 60 to 61 °C. `N#Cc1cc([N+](=O)[O-])c(Cl)c([N+](=O)[O-])c1` showed a melting point of 141 °C. In the case of `NNc1c(F)c(F)c(F)c(F)c1F`, the melting point is reported as 75 to 76 °C. In the case of `CC(=O)Nc1ccc(N)cc1`, the melting point is reported as 163 to 166 °C. With `O[Si](c1ccccc1)(c1ccccc1)c1ccccc1` the melting point was 152 to 155 °C. In the case of `Cc1ccccc1-c1ccccc1C`, the melting point is reported as 18 to 19.5 °C. Work on `CCOC(=O)c1cccc([N+](=O)[O-])c1` yielded a melting point of 42 to 47 °C. Molecule `CCCCCCCCCCBr` has a melting point of -30 to -29 °C. `Clc1ccc(Cl)c(I)c1` showed a melting point of 21 to 22 °C. `Sc1nc2ccccc2[nH]1` gave a melting point of 298 °C. `CCOC(=O)c1ccc([N+](=O)[O-])cc1` gave a melting point of 57 to 58 °C. Molecule `ClCC(CCl)(CCl)CCl` has a melting point of 95 to 97 °C. With `CC(=O)O[Si](C)(OC(C)=O)OC(C)=O` the melting point was 40.5 to 43 °C. For `C/C=C/C`, the melting point was -106 to -105 °C. `O=C(CCl)CCl` showed a melting point of 44 to 45 °C. In the case of `CCCCC(C)CCC` (centres undefined), the melting point is reported as -113 °C. With `O=C(Oc1cccc(O)c1)c1ccccc1` the melting point was 132 to 134 °C. `COC(=O)c1cccnc1` showed a melting point of 42 to 42.5 °C. For `Nc1ccc2[nH]ncc2c1`, the melting point was 175 to 176 °C. Molecule `O=[N+]([O-])c1ccc(Cl)c(Cl)c1` has a melting point of 39 to 43 °C. In the case of `ClC(Cl)C(Cl)Cl`, the melting point is reported as -44 to -43 °C. With `Cc1ccccn1` the melting point was -70 to -66.7 °C. `N#C/C=C/c1ccccc1` showed a melting point of 19 to 22 °C. Work on `CCc1ccccc1` yielded a melting point of -95 to -94.9 °C. Molecule `CCC(C)OC(C)=O` (centres undefined) has a melting point of -99 to -98.9 °C. In the case of `Oc1cc(O)c(Cl)cc1Cl`, the melting point is reported as 113 to 115 °C. `O=C(O)c1cccc(F)c1` gave a melting point of 123 to 124 °C. `O/N=C(\c1ccccc1)C(O)c1ccccc1` (centres undefined) showed a melting point of 151 to 154 °C. For `CCOCC`, the melting point was -116 °C. Work on `CCCCCCC(O)CCCC` (centres undefined) yielded a melting point of -4 to -3.5 °C. For `Cn1nnnc1S`, the melting point was 122 to 127 °C. Molecule `O=[N+]([O-])c1cc(F)ccc1O` has a melting point of 73 to 75 °C. `BrCCCCOc1ccccc1` showed a melting point of 41 to 42 °C. Molecule `CCCCOc1ccccc1` has a melting point of -19.4 to -19 °C. With `Cc1csc(S)n1` the melting point was 88 to 89.3 °C. `O=[N+]([O-])c1cccc2c([N+](=O)[O-])cccc12` showed a melting point of 216 to 219 °C. Molecule `O=C(O)c1cc(F)c(F)cc1F` has a melting point of 98 to 100 °C. `ClC1=C(Cl)C2(Cl)C3C(Cl)C=CC3C1(Cl)C2(Cl)Cl` (centres undefined) showed a melting point of 95 to 95.5 °C. Molecule `CCCC(=O)OCCC(C)C` has a melting point of -73.2 to -73 °C. Work on `CC(=O)c1cccs1` yielded a melting point of 10 to 10.5 °C. Molecule `CC(C)COC(=O)C(C)C` has a melting point of -81 to -80 °C. With `Cc1cccc(N)c1C` the melting point was 2 to 3 °C. With `c1csc(-c2cccs2)c1` the melting point was 32 to 33 °C. With `CCc1nnc(N)s1` the melting point was 200 to 201 °C. In the case of `Cc1cc(Cl)nc2ccccc12`, the melting point is reported as 55 to 59 °C. In the case of `COC(=O)c1ccc(C=O)cc1`, the melting point is reported as 60 to 61 °C. `NNC(=O)c1ccc(Br)cc1` showed a melting point of 166 to 168 °C. With `CC(C)c1cc(C(C)C)c(C(C)C)cc1C(C)C` the melting point was 118 to 119 °C. For `O=C(O)CCC(=O)c1ccc(-c2ccccc2)cc1`, the melting point was 186 °C. For `NNS(=O)(=O)c1ccccc1`, the melting point was 102 to 103 °C. For `O=C(O)CCCCC(=O)O`, the melting point was 152 to 153 °C. `CNC1=Nc2ccc(Cl)cc2C(c2ccccc2)=[N+]([O-])C1` showed a melting point of 236 °C. For `Fc1ccccc1I`, the melting point was -42 to -41.5 °C. In the case of `O=S(=O)(c1ccc(Cl)cc1)c1ccc(Cl)cc1`, the melting point is reported as 148 to 149 °C. For `CCC(C)=C(C)C`, the melting point was -118 °C. In the case of `O=C1C=CC(=O)O1`, the melting point is reported as 52.8 to 54 °C. Work on `CC1CC1(C)C` (centres undefined) yielded a melting point of -138 °C. Molecule `CC(=O)Nc1ccccc1Cl` has a melting point of 87 to 89 °C. Molecule `CC(C)(C)c1ccc(C(O)CCCN2CCC(C(O)(c3ccccc3)c3ccccc3)CC2)cc1` (centres undefined) has a melting point of 147 to 148 °C.
